Legend:
[1] = system: Tyrosine-protein kinase ABL1 (Homo sapiens), P00519 [F317I]; test: Binding affinity to human phosphorylated ABL1 F317I mutant (S229 to K512 residues) expressed in mammalian expression system assessed as residual binding level at 10 uM by Kinomescan method relative to control
[2] = target: Aurora kinase B (Homo sapiens) (UniProt Q96GD4); test: Binding affinity to wild-type human partial length AURKB (D25 to A303 residues) expressed in mammalian expression system assessed as residual binding level at 10 uM by Kinomescan method relative to control
[3] = target: Glycogen synthase kinase-3 alpha (Homo sapiens) (UniProt P49840); test: Binding affinity to wild-type human full length GSK3A (M1 to S483 residues) expressed in bacterial expression system assessed as residual binding level at 10 uM by Kinomescan method relative to control
[4] = target: Interleukin-1 receptor-associated kinase 1 (Homo sapiens) (UniProt P51617); test: Binding affinity to wild-type human partial length IRAK1 (R194 to S712 residues) expressed in mammalian expression system assessed as residual binding level at 10 uM by Kinomescan method relative to control
[5] = target: Myosin-IIIb (Homo sapiens) (UniProt Q8WXR4); test: Binding affinity to wild-type human partial length MYO3B (M1 to D357 residues) expressed in bacterial expression system assessed as residual binding level at 10 uM by Kinomescan method relative to control
[6] = target: Phosphatidylinositol 4,5-bisphosphate 3-kinase catalytic subunit beta isoform (Homo sapiens) (UniProt P42338); test: Binding affinity to wild-type human partial length PIK3CB (P118 to S1070 residues) expressed in mammalian expression system assessed as residual binding level at 10 uM by Kinomescan method relative to control
[7] = target: Serine/threonine-protein kinase pim-2 (Homo sapiens) (UniProt Q9P1W9); test: Binding affinity to wild-type human partial length PIM2 (M1 to E291 residues) expressed in bacterial expression system assessed as residual binding level at 10 uM by Kinomescan method relative to control
[8] = target: Protein kinase C epsilon type (Homo sapiens) (UniProt Q02156); test: Binding affinity to wild-type human partial length PRKCE (A378 to P737 residues) expressed in mammalian expression system assessed as residual binding level at 10 uM by Kinomescan method relative to control
[9] = target: SRSF protein kinase 1 (Homo sapiens) (UniProt Q96SB4); test: Binding affinity to wild-type human full length SRPK1 (M1 to S655 residues) expressed in bacterial expression system assessed as residual binding level at 10 uM by Kinomescan method relative to control
[10] = target: Dual specificity protein kinase TTK (Homo sapiens) (UniProt P33981); test: Binding affinity to wild-type human partial length TTK (N505 to V798 residues) expressed in bacterial expression system assessed as residual binding level at 10 uM by Kinomescan method relative to control

Phosphatidylinositol 4,5-bisphosphate 3-kinase catalytic subunit beta isoform (Homo sapiens), sequence (P42338 whole entry, looked up, the tested form may be a part, canonical isoform): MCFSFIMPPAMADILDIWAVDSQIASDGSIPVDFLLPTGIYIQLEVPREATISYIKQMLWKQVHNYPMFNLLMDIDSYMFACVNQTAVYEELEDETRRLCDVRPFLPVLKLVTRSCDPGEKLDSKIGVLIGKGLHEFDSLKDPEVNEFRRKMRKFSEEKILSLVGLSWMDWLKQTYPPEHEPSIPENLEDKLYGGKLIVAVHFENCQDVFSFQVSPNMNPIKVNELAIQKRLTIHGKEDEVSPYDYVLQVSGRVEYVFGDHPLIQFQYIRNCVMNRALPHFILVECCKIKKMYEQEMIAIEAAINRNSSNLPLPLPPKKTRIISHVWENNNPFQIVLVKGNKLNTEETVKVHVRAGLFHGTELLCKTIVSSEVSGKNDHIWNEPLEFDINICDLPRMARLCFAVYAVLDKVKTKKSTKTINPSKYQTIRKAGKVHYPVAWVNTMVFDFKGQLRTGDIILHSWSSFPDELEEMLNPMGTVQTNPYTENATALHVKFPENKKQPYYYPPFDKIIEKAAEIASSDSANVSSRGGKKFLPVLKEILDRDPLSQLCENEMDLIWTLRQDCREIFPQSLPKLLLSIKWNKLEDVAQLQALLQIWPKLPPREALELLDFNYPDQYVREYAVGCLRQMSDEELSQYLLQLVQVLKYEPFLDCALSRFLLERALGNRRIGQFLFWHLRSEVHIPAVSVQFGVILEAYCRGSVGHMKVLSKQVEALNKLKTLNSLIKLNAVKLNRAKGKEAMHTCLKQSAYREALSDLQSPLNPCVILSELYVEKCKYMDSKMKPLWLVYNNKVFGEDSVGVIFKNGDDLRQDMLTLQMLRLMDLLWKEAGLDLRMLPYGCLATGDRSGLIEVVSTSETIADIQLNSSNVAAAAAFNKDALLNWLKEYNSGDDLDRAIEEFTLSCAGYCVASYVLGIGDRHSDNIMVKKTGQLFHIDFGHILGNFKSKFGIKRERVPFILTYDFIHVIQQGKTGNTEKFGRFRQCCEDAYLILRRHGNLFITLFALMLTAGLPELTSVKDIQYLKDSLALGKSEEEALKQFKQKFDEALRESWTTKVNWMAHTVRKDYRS
Protein kinase C epsilon type (Homo sapiens), sequence (Q02156 whole entry, the tested form may be a part): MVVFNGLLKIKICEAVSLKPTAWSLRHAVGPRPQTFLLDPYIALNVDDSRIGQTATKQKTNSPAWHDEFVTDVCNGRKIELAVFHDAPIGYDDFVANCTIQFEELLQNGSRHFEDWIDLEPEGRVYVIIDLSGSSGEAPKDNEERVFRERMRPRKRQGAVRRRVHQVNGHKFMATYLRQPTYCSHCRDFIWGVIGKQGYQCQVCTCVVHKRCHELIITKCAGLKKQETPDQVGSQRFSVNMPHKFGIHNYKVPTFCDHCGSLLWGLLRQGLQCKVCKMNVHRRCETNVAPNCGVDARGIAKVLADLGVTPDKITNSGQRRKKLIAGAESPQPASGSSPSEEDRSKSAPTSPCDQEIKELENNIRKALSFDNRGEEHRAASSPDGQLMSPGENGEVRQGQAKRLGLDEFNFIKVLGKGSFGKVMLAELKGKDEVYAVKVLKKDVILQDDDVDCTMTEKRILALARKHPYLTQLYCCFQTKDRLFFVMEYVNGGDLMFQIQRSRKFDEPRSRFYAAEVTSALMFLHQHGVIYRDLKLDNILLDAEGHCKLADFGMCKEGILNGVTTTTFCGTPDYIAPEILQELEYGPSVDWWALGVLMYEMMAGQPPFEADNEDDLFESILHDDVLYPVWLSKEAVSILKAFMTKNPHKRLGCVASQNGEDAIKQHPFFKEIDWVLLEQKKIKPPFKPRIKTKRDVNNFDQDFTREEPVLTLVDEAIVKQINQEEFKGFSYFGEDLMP
Aurora kinase B (Homo sapiens), sequence (Q96GD4 whole entry, the tested form may be a part): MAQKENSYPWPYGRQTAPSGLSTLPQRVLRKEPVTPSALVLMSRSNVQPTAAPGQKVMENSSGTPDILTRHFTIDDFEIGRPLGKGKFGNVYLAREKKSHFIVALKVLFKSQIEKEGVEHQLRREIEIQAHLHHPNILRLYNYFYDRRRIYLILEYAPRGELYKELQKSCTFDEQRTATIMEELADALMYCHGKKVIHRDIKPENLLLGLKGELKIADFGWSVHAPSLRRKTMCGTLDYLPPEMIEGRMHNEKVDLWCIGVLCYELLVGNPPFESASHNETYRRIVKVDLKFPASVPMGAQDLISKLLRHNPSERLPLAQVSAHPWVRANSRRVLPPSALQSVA
Serine/threonine-protein kinase pim-2 (Homo sapiens), sequence (Q9P1W9 whole entry, looked up, the tested form may be a part): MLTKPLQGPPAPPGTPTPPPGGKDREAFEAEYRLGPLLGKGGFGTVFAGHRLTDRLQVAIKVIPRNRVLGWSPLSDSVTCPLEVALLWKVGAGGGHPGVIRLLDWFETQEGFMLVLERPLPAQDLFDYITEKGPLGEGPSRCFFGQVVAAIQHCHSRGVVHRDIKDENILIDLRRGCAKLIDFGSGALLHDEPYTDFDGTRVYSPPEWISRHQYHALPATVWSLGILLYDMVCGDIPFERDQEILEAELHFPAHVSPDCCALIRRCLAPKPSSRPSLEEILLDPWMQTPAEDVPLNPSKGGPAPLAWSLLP
Myosin-IIIb (Homo sapiens), sequence (Q8WXR4 whole entry, the tested form may be a part, canonical isoform): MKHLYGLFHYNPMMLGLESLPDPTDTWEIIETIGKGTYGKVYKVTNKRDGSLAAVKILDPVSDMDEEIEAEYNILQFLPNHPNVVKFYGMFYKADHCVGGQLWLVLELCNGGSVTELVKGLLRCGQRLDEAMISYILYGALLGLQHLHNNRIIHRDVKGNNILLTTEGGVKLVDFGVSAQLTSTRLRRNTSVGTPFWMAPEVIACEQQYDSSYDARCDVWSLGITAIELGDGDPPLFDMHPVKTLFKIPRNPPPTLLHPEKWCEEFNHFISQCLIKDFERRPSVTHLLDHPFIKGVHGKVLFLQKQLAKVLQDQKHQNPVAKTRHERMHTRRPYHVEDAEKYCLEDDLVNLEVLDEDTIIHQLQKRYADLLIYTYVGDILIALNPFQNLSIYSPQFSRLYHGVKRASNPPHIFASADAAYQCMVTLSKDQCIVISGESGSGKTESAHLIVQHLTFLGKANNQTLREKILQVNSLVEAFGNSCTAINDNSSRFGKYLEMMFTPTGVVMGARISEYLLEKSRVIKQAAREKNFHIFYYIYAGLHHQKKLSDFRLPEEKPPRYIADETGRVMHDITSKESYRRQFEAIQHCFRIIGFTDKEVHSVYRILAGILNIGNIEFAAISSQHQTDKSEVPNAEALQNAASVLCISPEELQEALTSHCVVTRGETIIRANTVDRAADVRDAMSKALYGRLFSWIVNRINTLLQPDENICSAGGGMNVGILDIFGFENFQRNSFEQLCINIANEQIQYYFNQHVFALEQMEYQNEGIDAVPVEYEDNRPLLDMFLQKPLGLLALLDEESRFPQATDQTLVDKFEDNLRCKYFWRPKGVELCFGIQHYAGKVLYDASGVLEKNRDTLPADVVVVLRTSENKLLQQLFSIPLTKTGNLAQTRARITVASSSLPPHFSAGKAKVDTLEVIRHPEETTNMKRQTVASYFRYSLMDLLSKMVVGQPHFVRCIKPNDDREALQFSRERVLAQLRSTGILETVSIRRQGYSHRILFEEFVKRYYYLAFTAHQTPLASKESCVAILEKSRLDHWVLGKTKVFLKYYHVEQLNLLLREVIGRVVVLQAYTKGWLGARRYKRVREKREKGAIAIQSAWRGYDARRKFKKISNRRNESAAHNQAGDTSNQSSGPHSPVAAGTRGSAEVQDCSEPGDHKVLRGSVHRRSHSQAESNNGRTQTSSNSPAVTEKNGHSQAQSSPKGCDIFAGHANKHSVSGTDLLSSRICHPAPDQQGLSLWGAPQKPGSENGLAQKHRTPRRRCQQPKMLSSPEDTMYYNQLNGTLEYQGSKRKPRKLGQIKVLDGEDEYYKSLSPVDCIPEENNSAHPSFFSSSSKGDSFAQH
Glycogen synthase kinase-3 alpha (Homo sapiens), sequence (P49840 2-483 limits assumed): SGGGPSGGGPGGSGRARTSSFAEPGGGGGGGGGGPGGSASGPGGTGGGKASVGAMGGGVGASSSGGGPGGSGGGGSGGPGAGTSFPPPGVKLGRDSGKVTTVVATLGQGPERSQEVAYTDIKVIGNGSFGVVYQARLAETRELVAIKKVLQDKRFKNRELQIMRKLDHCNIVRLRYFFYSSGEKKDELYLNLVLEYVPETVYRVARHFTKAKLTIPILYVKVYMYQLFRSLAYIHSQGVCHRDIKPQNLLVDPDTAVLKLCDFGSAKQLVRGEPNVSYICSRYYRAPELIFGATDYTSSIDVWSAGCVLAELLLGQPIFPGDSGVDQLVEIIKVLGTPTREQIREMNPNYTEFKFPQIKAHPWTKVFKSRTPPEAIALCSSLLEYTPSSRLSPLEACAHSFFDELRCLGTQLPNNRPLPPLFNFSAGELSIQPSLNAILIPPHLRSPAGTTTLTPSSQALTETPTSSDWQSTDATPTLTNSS
SRSF protein kinase 1 (Homo sapiens), sequence (Q96SB4 whole entry, the tested form may be a part): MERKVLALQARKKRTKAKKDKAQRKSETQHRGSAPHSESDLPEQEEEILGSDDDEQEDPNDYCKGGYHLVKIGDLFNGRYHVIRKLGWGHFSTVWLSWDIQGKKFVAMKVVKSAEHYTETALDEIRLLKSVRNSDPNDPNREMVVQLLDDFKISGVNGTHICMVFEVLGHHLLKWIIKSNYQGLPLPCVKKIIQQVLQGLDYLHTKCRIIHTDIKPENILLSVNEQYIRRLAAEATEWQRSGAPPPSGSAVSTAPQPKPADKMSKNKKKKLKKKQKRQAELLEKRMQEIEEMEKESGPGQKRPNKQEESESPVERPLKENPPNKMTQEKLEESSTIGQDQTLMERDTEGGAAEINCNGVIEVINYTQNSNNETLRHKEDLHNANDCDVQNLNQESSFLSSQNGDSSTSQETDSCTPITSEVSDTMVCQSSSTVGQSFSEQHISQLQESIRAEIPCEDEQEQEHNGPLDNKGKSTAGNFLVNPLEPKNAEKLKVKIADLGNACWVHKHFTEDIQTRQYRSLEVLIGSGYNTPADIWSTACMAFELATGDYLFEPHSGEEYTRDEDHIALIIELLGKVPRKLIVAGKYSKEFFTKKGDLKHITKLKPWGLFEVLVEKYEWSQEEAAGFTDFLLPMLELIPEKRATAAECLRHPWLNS

Compound `CC(C)N1C(=O)C(NCCCN(C)C)=C(c2cn(C)c3ccccc23)C1=O.Cl` has an Activity [1] of 87%, an Activity [2] of 84% and an Activity [3] of 83%. It also gave an Activity [4] of 66%, an Activity [5] of 90% and an Activity [6] of 89%. The Activity [7] was 100%, the Activity [8] was 94% and the Activity [9] was 83%. For the same compound, the Activity [10] was 100%.

Source: ChEMBL document CHEMBL4304811, “Development of a Water-Soluble Indolylmaleimide Derivative IM-93 Showing Dual Inhibition of Ferroptosis and NETosis” (ACS Med Chem Lett, 2019)
